{"source": "patent US6777190B1", "about": "“Crosstalk inhibitors and their uses” (Biosite, Inc., priority 1991, dated 2004)", "system": "monoclonal antibodies to morphine (morp Ab)", "test": "Crosstalk inhibitor test: colloidal gold ligand analogue conjugate binding at the morp Ab zone of a nylon membrane (color density DE*)", "settings": "5 μl (1.1 μmol) inhibitor, Table 3 #6 vs #1", "data": [{"smiles": "O=C(O)CCCCCNC(=O)C1CCC(CN2C(=O)CC(SCCC(=O)O)C2=O)CC1", "note": "(stereo not shown) [CCM-MPA]", "values": [{"measurement": "decrease of the morphine response", "value": "about 30%"}]}]}
